Results: US9980972B2, “Rho kinase inhibitors for use in treating familial amyotrophic lateral sclerosis” (GEORG-AUGUST-UNIVERSITÄT GÖTTINGEN STIFTUNG ÖFFENTLICHEN …, priority 2012, dated 2018)

Columns and labels:
[1] = test system: spinal cord microglia of SOD1 G93A mice; assay: Microglia morphology subclassification in lumbar spinal cord; type: in vivo, mouse
Text: For the evaluation of microglia morphology at least 10 randomly chosen cells per ventral horn were examined with a 63× objective. Cells were classified as “thin ramified”, “stouter ramified” and “rounded” according to a recent morphologic description by Graeber et al. (Graeber, M. B. (2010) Science 330(6005): 783-788). A ramified cell was defined as a cell that has at least 2 processes that are at least twice the size of cell body. Thin ramified cells were defined to have a small diameter of ramifications (<0.5 μm) and a small cell soma diameter (<5 μm). Stoutly ramified cells were defined with thicker ramifications (>0.5 μm) and a larger cell soma diameter (>5 μm).
In order to further characterize the differential microglial behaviour in the treatment groups at d100, we performed a morphologic subclassification of microglial cells, as described above under the heading “Quantitative evaluation of spinal cord motoneurons and astroglia, sciatic nerve axons and NMJ”. […] The latter two morphologic cell types are considered to reflect a state of enhanced microglial activation in comparison to a surveillance type which is characterized by smaller cell bodies and thin ramified processes (exemplary microscopic images are shown in FIG. 21 C).

[2] = test system: SOD1 G93A mouse model of ALS; assay: Survival (age at death) in SOD1 G93A mouse model of ALS; type: in vivo; conditions: for survival proportions over time: non-differentiated by gender
Text: High-copy B6SJL-Tg(SOD1*G93A)1Gur/J were obtained from Jackson Labs (Stock Number 002726; Bar Harbor, USA) that had originally been produced by Gurney et al. (Gurney, Pu et al. 1994). The colony was maintained by crossing C57BL/6 males harboring the transgene with wild-type SJL females. To verify presence of the transgene in the F1 progeny, tail biopsies were collected from 14-day-old pups and genotyped using PCR. At the age of 35-45 days mice were moved to the testing facility to acclimate to the new environment with a 12-h light/dark cycle before being assigned to a study.
At 50 days (presymptomatic, d50) or 80 days of age (symptomatic, d80) mice were separated into Fasudil-30 (Fas30)- and Fasudil-100 (Fas100)-Treatment or Vehicle Control (Veh) groups. Prior to any treatment, groups were constituted so as to minimize between-group variability by using the following criteria. Groups were balanced with respect to gender and body weight within gender. In addition, groups were age-matched and littermate-matched. […] The study was observer-blinded.
To reach sufficient CSF levels of Fasudil the inventors administered Fasudil (LC Labs, Woburn, USA; product number F-4660) at a low concentration of […] (Fas30) or at a high concentration of 50 mg (Fas100) in 100 ml drinking water. Control groups received the respective amount of isotonic drinking water termed as vehicle (Veh).
Chronic oral treatment with a low dose of Fasudil (F30) or a high dose of Fasudil (F100) was started either presymptomatically at day 50 or symptomatically at day 80 and continued until death.
Survival. Date and cause of death were recorded for each mouse. For humane reasons, animals are closely monitored and sacrificed as moribund prior to actual death using criteria for severe moribundity. To determine duration of survival reliably and humanely, the moribund state, defined as the inability of mice to right themselves 30 seconds after being placed on a side (a neurological score of 4) was used. The moribund mice were scored as “dead”, and were euthanized using carbon dioxide.
The data were then analyzed using Kaplan-Meier survival fit analysis with the Log-Rank and Wilcoxon tests for statistical significance. Cox proportional hazards analysis was also performed to determine hazard ratios and test for statistical significance of their differences using the Effect Likelihood Chi Square test. Statistical analyses were performed using Statistica 9.1 (StatSoft, Hamburg, Germany). P-values less than 0.05 were taken to be statistically significant.
The criteria to terminate the therapy study (later referred to as time of death) were fulfilled if the animals had reached the terminal neurological scoring or had lost a defined percentage of the maximal body weight. This time point then reflects the survival time of the animals whereas disease duration was measured from onset of disease until time of death.

[3] = test system: sciatic nerve axons of SOD1 G93A mice; assay: Sciatic nerve axon numbers (axonal degeneration); type: in vivo, mouse; conditions: day 100, female, Fas30 vs transgenic vehicle
Procedure: Sciatic nerves were removed separately and postfixed for 24 h in 4% paraformaldehyde. […] After three washing steps the nerves were embedded in […] and Propylenoxide with a ratio of first 1:1 and then 2:1, each for 35 min. Before putting into a flat mould for drying and harding, Propylenoxide had to evaporate under a hood for 1 h. The sciatic nerves embedded in […] blocks were cut with a Microtom (Leica Ultracut) into semithin sections (380 nm) and were collected on gelatine coated glass slides. […] After washing in distilled water, slices were dried and mounted in […] cuts of sciatic nerve axons were evaluated from light microscopy images for axonal numbers and axoplasm size with the semi-automated counting and size measuring tool of the Image J software. In the d50 treatment group analyzed at […], a total of 17 female mice were counted from vehicle (5), Fas30 (7), and wildtype (5).

**Q.** Which rounded microglia ([1]; d100, Fasudil 30, vehicle SOD1G93A 0.7±0.2%) does the source give for `O=S(=O)(c1cccc2cnccc12)N1CCCNCC1` [Fasudil, 1-(5-isoquinolinesulfonyl)homopiperazine] here?
**A.** Its rounded microglia is 0.5±0.1%.

**Q.** What about the “microglia with stout ramified processes” value ([1]; d100, Fasudil 30, vehicle SOD1G93A 46.7±6.3%) of the same compound?
**A.** Its value is 70.8±5.3%.

**Q.** And the “microglia with thin ramifications” value ([1]; d100, Fasudil 30, vehicle SOD1G93A 52.6±6.3%)?
**A.** Its value is 28.7±5.3%.

**Q.** What about the microglial morphology ([1]; disease end-stage, all treatment groups) of the same compound?
**A.** The microglial morphology was “no gross alterations”.

**Q.** And the average survival ([2]; female, presymptomatic (d50) treatment, Fas30 (30 mg/kg/day in drinking water), control 130.4 days)?
**A.** Its average survival is 141.8 days.

**Q.** What about the survival ([2]; male, presymptomatic (d50), Fas30) of the same compound?
**A.** The survival was “trend in prolongation of survival”.

**Q.** What about the “survival proportions over time” value ([2]; presymptomatic (d50), Fas30) of the same compound?
**A.** Its value is “profited significantly from the treatment”.

**Q.** And the “survival proportions over time” value ([2]; symptomatic (d80), Fas30)?
**A.** Its value is “did not show a statistically significant difference”.

**Q.** And the “survival proportions over time” value ([2]; symptomatic (d80), Fas100 (100 mg/kg/day))?
**A.** The value was “did not show a statistically significant difference”.

**Q.** And the survival effect ([2]; presymptomatic (d50), Fas100, compared with Fas30)?
**A.** Its survival effect is “less prominent”.

**Q.** And the survival ([2]; symptomatic treatment start, female or male group)?
**A.** The survival was “not able to prolong survival”.

**Q.** And the “axonal number by axoplasmal diameter size range” value [3]?
**A.** The value was “no significant differences”.

**Q.** And the “total number of preserved axons in the sciatic nerve” value [3]?
**A.** The value was “comparable axon numbers”.
